The source of these data is patent US20090253745A1, “MODULATORS OF OCULAR OXIDATIVE STRESS” (SIRION THERAPEUTICS, INC., priority 2007, published 2009).

The test system of one data set is eyeglobes of mice. Description: Ex vivo lens toxicity test, whole eyeglobes cultured overnight. Particulars: overnight incubation, media containing 45% β-cyclodextrin, 37° C. As to the method:
FIG. 3. Ex vivo lens toxicity test of TAPP1. The eyeglobes of mice (aged 42 days) were cultured overnight either with control solution (media containing 45% β-cyclodextrin) or TAPP1 (TAPP1 in media containing 45% β-cyclodextrin), at 37° C. overnight, and in 95% air/5% CO2. […] To determine the effects of TAPP1 on isolated lenses, intact lenses were dissected from wild-type mouse eyeglobes, and incubated in DMEM media in a 96 well tissue culture plate. Groups of 3-6 lenses were incubated in 200 μl of media alone (negative control), 4% (2-hydroxypropyl)-β-cyclodextrin (carrier control), 8 mM hydrogen peroxide (H2O2, positive control for lens toxicity), 4 mM TAPP1-O (free radical form), 4 mM TAPP1-R (reduced form), and 4 mM of the two products of TAPP1-R hydrolysis (HP-1 and HP-2), respectively. β-cyclodextrin was included as a carrier control because all of the stock solutions contained 45% (2-hydroxypropyl)-β-cyclodextrin. The samples were incubated in 5% CO2 incubator at 37 C for 2 days.
The TAPP compositions are intended for topical delivery to the anterior portion of the eye. […] Morphological or anatomical effects are determined by comparison of TAPP-treated samples to samples incubated with either the TAPP vehicle or samples which are exposed (10 min treatment) to 100% ethanol (a positive control for lens toxicity). […]

Data set [1] has as its system explants of wild-type mouse retina. The data set can be described thus: In vitro model of light-mediated oxidative stress: isoprostane release from retina explants. It counts as cell-based. As to conditions: intense light (~10,000 Lux), 2-day incubation. An excerpt: FIG. 6. Development of an in vitro model of light-mediated oxidative stress. An in vitro model of oxidative stress was developed to determine the therapeutic potency of the TAPP compositions. In this model, explants of wild-type mouse retina are placed into culture media and exposed to intense white light over a 2 day period. Control samples were exposed to subdued lighting (˜100 Lux). The formation of oxidized arachadonic acid (isoprostanes), which is a direct measure of oxidative stress in biological samples, was monitored with a commercially available assay kit (Cayman Chemical Company, Ann Arbor, Mich.).
FIG. 7. TAPP1 reduces light-mediated oxidative stress. The aforementioned in vitro assay of light-mediated oxidative stress was employed to determine the therapeutic potency of TAPP1. In this experiment, isoprostane released from retina explants was measured in the absence and presence of TAPP1 in subdued lighting (˜100 Lux) and during intense light exposure (˜10,000 Lux). […]
The compound TAPP1 (C18H24N4O3), MW 344.18, is formulated as described above. […] TAPP content of the supernatant is analyzed by a capillary reverse phase C18 column. […] The relative quantity of the TAPP is determined by area integration of the TAPP elution peak. […] Isoprostanes are measured with a commercially available in vitro assay kit.

A further data set concerns SOD1 mutant mice. Description: Fluorescein angiography: hypopigmentation and integrity of retinal vessels in SOD1 mutant mice. The data set is classed as in vivo, mouse. The protocol: FIG. 10. TAPP1 improves integrity of retinal vessels in SOD1 mutant mice. A late stage pathology which has been documented in SOD1 mutant mice is choroidal neovascularization (CNV). This pathology is detected by fluorescein angiography. In this technique, a fluorescent dye (fluorescein) is injected into mice and the flow of this dye through vessels of the retina is monitored using a specialized fundus camera. Leakage of the dye outside the retinal vessels indicates compromised vessel integrity and/or CNV. SOD1 mutant mice (aged 6 months) which have been administered the TAPP1 vehicle (treatment protocol is described above) show a prominent area of dye leakage in the area surrounding the optic disc (indicated by arrow).
A Zeiss FF3 fundus camera with a camera back containing a barrier filter for fluorescein angiography (FA) is used. Animals are placed in a restraint built onto the fundus camera and injected with 25% sodium fluorescein (0.01 ml in sterile saline per 5-6 gm of body weight, i.p.). Immediately following the injection, a timer on the camera back is engaged so that elapsed time in seconds is recorded for each picture. The fluorescein images are recorded on Fujichrome Velvia RVP 100 color slide film.

SMILES strings stand for the structures. Entries after “also recorded” stand apart in the source; their conditions may differ.

For `CC1(C)CC(OC(=O)c2cc(-c3ccncc3)n[nH]2)CC(C)(C)N1[O]` [TAPP1, 1-oxyl-2,2,6,6-tetramethylpiperidin-4-yl 3-(pyridin-4-yl)-1H-pyrazole-5-carboxylate], the “cataract or other overt toxicity in eyeglobes” value in the data set with eyeglobes of mice is reported as “no cataract or other overt toxicity”. The “isoprostane release from retina explants” value in data set [1] is on record as “significantly reduced”. For the same compound, the “fluorescein dye leakage around the optic disc (integrity of retinal vessels)” value with SOD1 mutant mice (SOD1 mutant mice aged 6 months, TAPP1 eye drops versus vehicle) was “no dye leakage; also recorded: reduced dye leakage”. Moreover, the severity of hypopigmentation result with SOD1 mutant mice (SOD mutant mice aged 186 days, TAPP1 eye drops) is recorded as “reduces the severity of hypopigmentation”.
